Test results: PubChem BioAssay AID264 (DTP/NCI, 2004)
“And” between values parts separate entries of the source, which are not always exact repeats. Equal values may be shown once. Inconclusive results are not listed.

System: nude mice, LX-1 lung xenograft intrarenal, tumor weight T/C
Test: NCI In Vivo Anticancer Drug Screen. Data for tumor model Human Lung LX-1 Xenograft (intrarenal inoculation) in NU/NU Swiss (nude) mice
Details: endpoint: mean tumor weight change, higher = larger tumour
Experimental: The antitumor activity of compounds was measured in mice bearing transplantable tumors. Survival or tumor size were measured and the results are expressed as the measurement made in the treated group (T) divided by the measurement made in the vehicle treated control group (C). The tumor model used in this assay is Human Lung LX-1 Xenograft (intrarenal inoculation) in NU/NU Swiss (nude) mice

[1] = dose: 50.0 mg/kg/injection, schedule: Q01DX010 (sc), vehicle: saline with Tween-80
[2] = dose: 100.0 mg/kg/injection, schedule: Q01DX010 (sc), vehicle: saline with Tween-80
[3] = dose: 200.0 mg/kg/injection, schedule: Q01DX010 (sc), vehicle: saline with Tween-80
[4] = dose: 12.5 mg/kg/injection, schedule: Q04DX003 (sc), vehicle: suspension in saline

CCCCC(=O)OCC(=O)[C@]1(O)Cc2c(O)c3c(c(O)c2[C@@H](OC2CC(NC(=O)C(F)(F)F)C(O)C(C)O2)C1)C(=O)c1c(OC)cccc1C3=O (some centres not stated)
T/C (dose: 32.0 mg/kg/injection, schedule: Q01DX010 (sc), vehicle: distilled water + Tween-80): 84 % of control
T/C (dose: 512.0 mg/kg/injection, schedule: Q01DX010 (sc), vehicle: distilled water + Tween-80): 5 % of control and 8 % of control and 26 % of control

CN(C)CCN1C(=O)c2cccc3cc([N+](=O)[O-])cc(c23)C1=O
T/C (dose: 9.0 mg/kg/injection, schedule: Q04DX003 (sc), vehicle: saline with Tween-80): 94 % of control
T/C (dose: 18.0 mg/kg/injection, schedule: Q04DX003 (sc), vehicle: saline with Tween-80): 108 % of control
T/C (dose: 36.0 mg/kg/injection, schedule: Q04DX003 (sc), vehicle: saline with Tween-80): 95 % of control

CO[C@@]12[C@H](COC(N)=O)C3=C(C(=O)C(C)=C(N)C3=O)N1C[C@@H]1N[C@@H]12
T/C (dose: 0.63 mg/kg/injection, schedule: Q04DX003 (sc), vehicle: saline): 98 % of control
T/C (dose: 1.25 mg/kg/injection, schedule: Q04DX003 (sc), vehicle: saline): 32 % of control and 40 % of control and 42 % of control
T/C (dose: 1.5 mg/kg/injection, schedule: Q04DX003 (sc), vehicle: saline): 42 % of control
T/C (dose: 3.0 mg/kg/injection, schedule: Q04DX003 (sc), vehicle: saline): 14 % of control and 16 % of control (2×)
T/C (dose: 3.0 mg/kg/injection, schedule: Q04DX003 (sc), vehicle: suspension in saline): 3 % of control
T/C (dose: 6.0 mg/kg/injection, schedule: Q04DX003 (sc), vehicle: suspension in saline): -55 % of control
T/C (dose: 12.0 mg/kg/injection, schedule: Q04DX003 (sc), vehicle: saline): -76 % of control

CC1(O)CC23CC(O)C4(O)C(CC(O)C4(C)C)C(C)(O)C2CCC1C3O (configuration not stated)
T/C (dose: 0.25 mg/kg/injection, schedule: Q04DX003 (sc), vehicle: Klucel (hydroxypropylcellulose) (HPC)): 78 % of control
T/C (dose: 0.5 mg/kg/injection, schedule: Q04DX003 (sc), vehicle: Klucel (hydroxypropylcellulose) (HPC)): 77 % of control
T/C (dose: 1.0 mg/kg/injection, schedule: Q04DX003 (sc), vehicle: Klucel (hydroxypropylcellulose) (HPC)): 58 % of control

O=C(CO)c1ccc([N+](=O)[O-])cc1
T/C [1]: 78 % of control
T/C [2]: 86 % of control
T/C [3]: 103 % of control
T/C (dose: 400.0 mg/kg/injection, schedule: Q01DX010 (sc), vehicle: saline with Tween-80): 70 % of control

Cc1ccc(N)c(N)c1
T/C (dose: 200.0 mg/kg/injection, schedule: Q04DX003 (sc), vehicle: saline with Tween-80): 57 % of control
T/C (dose: 400.0 mg/kg/injection, schedule: Q04DX003 (sc), vehicle: saline with Tween-80): 74 % of control
T/C (dose: 800.0 mg/kg/injection, schedule: Q04DX003 (sc), vehicle: saline with Tween-80): 57 % of control

C=C[Si]12OCCN(CCO1)CCO2
T/C (dose: 300.0 mg/kg/injection, schedule: Q04DX003 (sc), vehicle: Klucel (hydroxypropylcellulose) (HPC)): 250 % of control
T/C (dose: 600.0 mg/kg/injection, schedule: Q04DX003 (sc), vehicle: Klucel (hydroxypropylcellulose) (HPC)): 212 % of control
T/C (dose: 1200.0 mg/kg/injection, schedule: Q04DX003 (sc), vehicle: Klucel (hydroxypropylcellulose) (HPC)): 163 % of control

CN(Cc1cnc2nc(N)nc(N)c2n1)c1ccc(C(=O)N[C@@H](CCC(=O)O)C(=O)O)cc1
T/C (dose: 0.5 mg/kg/injection, schedule: Q01DX010 (sc), vehicle: sodium bicarbonate): 74 % of control
T/C (dose: 1.0 mg/kg/injection, schedule: Q01DX010 (sc), vehicle: sodium bicarbonate): 87 % of control
T/C (dose: 2.0 mg/kg/injection, schedule: Q01DX010 (sc), vehicle: sodium bicarbonate): 18 % of control

O=C1C2CC=CCC2C(=O)N1SC(Cl)(Cl)Cl (configuration not stated)
T/C (dose: 6.25 mg/kg/injection, schedule: Q01DX010 (sc), vehicle: saline with Tween-80): 102 % of control
T/C (dose: 12.5 mg/kg/injection, schedule: Q01DX010 (sc), vehicle: saline with Tween-80): 56 % of control
T/C [1]: 64 % of control and 86 % of control
T/C [2]: 76 % of control
T/C [3]: 97 % of control

O=c1cc(-c2ccccc2)[nH]c2c1CCCC2
T/C (dose: 300.0 mg/kg/injection, schedule: Q04DX003 (sc), vehicle: saline with Tween-80): 114 % of control
T/C (dose: 600.0 mg/kg/injection, schedule: Q04DX003 (sc), vehicle: saline with Tween-80): 113 % of control
T/C (dose: 1200.0 mg/kg/injection, schedule: Q04DX003 (sc), vehicle: saline with Tween-80): 113 % of control
T/C (dose: 2400.0 mg/kg/injection, schedule: Q04DX003 (sc), vehicle: saline with Tween-80): 106 % of control

C[n+]1ccc(Nc2ccc(NC(=O)c3ccc(Nc4cc[n+](C)c5ccc(N)cc45)cc3)cc2)cc1
T/C (dose: 12.5 mg/kg/injection, schedule: Q04DX003 (sc), vehicle: distilled water + Tween-80): 80 % of control
T/C (dose: 25.0 mg/kg/injection, schedule: Q04DX003 (sc), vehicle: distilled water + Tween-80): 86 % of control
T/C (dose: 50.0 mg/kg/injection, schedule: Q04DX003 (sc), vehicle: distilled water + Tween-80): 25 % of control
T/C (dose: 100.0 mg/kg/injection, schedule: Q04DX003 (sc), vehicle: distilled water + Tween-80): 53 % of control

CCN=C=NCCCN(C)C
T/C (dose: 25.0 mg/kg/injection, schedule: Q04DX003 (sc), vehicle: saline): 99 % of control
T/C (dose: 50.0 mg/kg/injection, schedule: Q04DX003 (sc), vehicle: saline): 102 % of control
T/C (dose: 100.0 mg/kg/injection, schedule: Q04DX003 (sc), vehicle: saline): 84 % of control

NC(=S)c1cn(C2OC(CO)C(O)C2O)c2ncnc(N)c12 (configuration not stated)
T/C (dose: 6.25 mg/kg/injection, schedule: Q04DX003 (sc), vehicle: suspension in saline): 58 % of control
T/C [4]: 43 % of control

O=NN(CCCl)C(=O)NC1CCCCC1
T/C (dose: 4.0 mg/kg/injection, schedule: Q01DX010 (ip), vehicle: saline with Tween-80): 101 % of control
T/C (dose: 8.0 mg/kg/injection, schedule: Q01DX010 (ip), vehicle: saline with Tween-80): 19 % of control
T/C (dose: 8.0 mg/kg/injection, schedule: Q01DX010 (sc), vehicle: saline with Tween-80): 112 % of control
T/C (dose: 8.0 mg/kg/injection, schedule: Q04DX003 (sc), vehicle: carboxymethylcellulose (CMC)): 64 % of control and 65 % of control
T/C (dose: 12.5 mg/kg/injection, schedule: Q04DX003 (sc), vehicle: Klucel (hydroxypropylcellulose) (HPC)): 35 % of control
T/C (dose: 13.33 mg/kg/injection, schedule: Q04DX003 (ip), vehicle: saline with Tween-80): 236 % of control
T/C (dose: 16.0 mg/kg/injection, schedule: Q01DX010 (ip), vehicle: saline with Tween-80): 11 % of control
T/C (dose: 16.0 mg/kg/injection, schedule: Q01DX010 (sc), vehicle: saline with Tween-80): 79 % of control
T/C (dose: 26.65 mg/kg/injection, schedule: Q04DX003 (ip), vehicle: saline with Tween-80): 152 % of control
T/C (dose: 32.0 mg/kg/injection, schedule: Q01DX010 (sc), vehicle: saline with Tween-80): -16 % of control
T/C (dose: 32.0 mg/kg/injection, schedule: Q04DX003 (sc), vehicle: carboxymethylcellulose (CMC)): 45 % of control and 52 % of control
T/C (dose: 50.0 mg/kg/injection, schedule: Q04DX003 (sc), vehicle: Klucel (hydroxypropylcellulose) (HPC)): 119 % of control
T/C (dose: 53.33 mg/kg/injection, schedule: Q04DX003 (ip), vehicle: saline with Tween-80): -38 % of control
T/C (dose: 64.0 mg/kg/injection, schedule: Q04DX003 (sc), vehicle: carboxymethylcellulose (CMC)): 10 % of control and 29 % of control

COC1=C(N)C(=O)c2nc(-c3nc(C(=O)O)c(C)c(-c4ccc(OC)c(OC)c4O)c3N)ccc2C1=O
T/C (dose: 0.13 mg/kg/injection, schedule: Q01DX010 (sc), vehicle: saline): 8 % of control
T/C (dose: 0.25 mg/kg/injection, schedule: Q01DX010 (sc), vehicle: saline): 7 % of control and -6 % of control
T/C (dose: 1.0 mg/kg/injection, schedule: Q01DX010 (sc), vehicle: saline): -85 % of control

[Cl][Pt+2][Cl].[NH-]C1CCC1.[NH2-]
T/C [4]: 57 % of control

O=C(Nc1nncs1)c1ccncc1
T/C [1]: 115 % of control
T/C [2]: 91 % of control

Cc1ccc(S(=O)(=O)N/N=C/C(=O)O)cc1
T/C (dose: 12.5 mg/kg/injection, schedule: Q01DX010 (sc), vehicle: Klucel (hydroxypropylcellulose) (HPC)): 98 % of control
T/C (dose: 50.0 mg/kg/injection, schedule: Q01DX010 (sc), vehicle: Klucel (hydroxypropylcellulose) (HPC)): 37 % of control and 55 % of control
T/C (dose: 200.0 mg/kg/injection, schedule: Q01DX010 (sc), vehicle: Klucel (hydroxypropylcellulose) (HPC)): 45 % of control
T/C (dose: 400.0 mg/kg/injection, schedule: Q01DX010 (sc), vehicle: Klucel (hydroxypropylcellulose) (HPC)): 58 % of control

COc1cc(NCCCCCCCNC(C)C)c2nccc(C)c2c1
T/C (dose: 37.5 mg/kg/injection, schedule: Q04DX003 (sc), vehicle: saline): 105 % of control
T/C (dose: 150.0 mg/kg/injection, schedule: Q04DX003 (sc), vehicle: saline): 87 % of control
